Tested on: HIV-1 NL4-3
Test: HIV-1 infectivity in TZM-b1 reporter cells (luciferase)
Format: cell-based
Conditions: for inhibition at 3 µM: Human immunodeficiency virus 1, NL43, TZM-b1, 48 h, read-out: INFECTIVITY @ 3 μM % Inhibition vs. DMSO control; for INFECTIVITY @ 3 μM % Inhibition vs. DMSO control: TZM-b1 reporter cells
Experimental: Compounds (1 μM) shown in FIG. 7 were added to cultures of U87MG and CEM-T4 cells in 96-well plates, followed by infection with wild-type HIV-1 NL4-3 (50 pg p24 equivalents/ml) 1 hour later. […] Virus replication was assessed by p24 ELISA after 4 days (U87MG) or 9 days (CEM-T4). Data are expressed as the mean percent inhibition as compared to control cultures incubated with the carrier solvent (DMSO)±S.E.M. (n=4). […] FIG. 9 concerns infectivity assays. Compounds (3 μM) were added to cultures of the reporter cell line TZM-b1 followed by infection with either wild-type or Nef-defective (ΔNef) HIV NL4-3 in 96-well plates. After 48 hours, relative virus infectivity was assessed as luciferase production in infected cells. […]
HIV assays: Viral stocks were prepared by transfection of 293T cells (ATCC) with wild-type and Nef-defective (ΔNef) proviral genomes (NL4—3 strain) and amplified in the T-cell line, MT2 (NIH AIDS Research and Reference Reagent Program). Viral replication was assessed in the U87MG astroglioma cell line engineered to express the HIV-1 co-receptors CD4 and CXCR4 or in the T-lymphoblast cell line, CEM-T4. […] Compounds were solubilized in DMSO, and added to the cell culture medium 1 h prior to infection with HIV. Viral replication was monitored for either 4 days (U87MG) or 9 days (CEM-T4) by measuring p24 Gag protein levels in the culture supernatant using standard ELISA-based techniques. HIV-1 infectivity was measured using the reporter cell line, TZM-b1 (NM AIDS Research and Reference Reagent Program). Cells were grown in 96-well plates (2.5×10^4) 8 h prior to virus infection to permit adherence. Compounds were pre-incubated with wild-type HIV-1 for 4 h prior to addition to the cells in a final volume of 200 μl. After 48 h at 37° C., the cells were washed with PBS and lysed in luciferase lysis buffer (Promega) by rocking for 15 min Lysates (40 μl) were transferred to white 96-well plates and 50 μl luciferase reagent (Promega) was injected into each well. Readings were recorded with a delay time of 2 sec and an integration period of 10 sec.

Compound | inhibition at 3 µM [%] | INFECTIVITY @ 3 μM % Inhibition vs. DMSO control [%]
N=C(N)n1nc(-c2ccc(F)cc2)c(Cc2cccc(Cl)c2)c1O [DD-1-21] | 0 | 
Oc1c(Cc2cccc(Cl)c2)c(-c2ccc(F)cc2)nn1C1=NCCN1 [DD-1-22] | 0 | 
Cc1c(Cc2cccc(Cl)c2)c(-c2ccccc2)nn1C(=N)N [DD-1-26] | 0 | 
COc1ccc(-c2nn(C(=N)N)c(O)c2Cc2cccc(Cl)c2)cc1 [DD-1-27] | 0 | 
Nc1c(Cc2cccc(Cl)c2)c(-c2ccc(F)cc2)nn1C1=NCCN1 [DD-1-30] | 0 | 
COc1cccc(Cc2c(-c3ccc([N+](=O)[O-])cc3)nn(C(=N)N)c2O)c1 [EAF-1-21] | 0 | 
COc1cccc(Cc2c(-c3ccc(F)cc3)nn(C(=N)N)c2O)c1 [EAF-1-22] | 0 | 
N=C(N)n1nc(-c2ccc([N+](=O)[O-])cc2)cc1O [JV-1-62-2-2] | 0 | 
COc1ccc(-c2nn(C(=N)N)c(O)c2CCc2cccc(OC)c2)cc1 [JV-1-67-1] | 0 | 
COc1ccc(-c2nn(C3=NCCN3)c(O)c2CCc2cccc(OC)c2)cc1 [JV-1-71-1] | 25.2 | 
COc1ccc(-c2n[nH]c(O)c2CCc2ccc(F)cc2)cc1 [JV-1-75-1] | 0 | 
COc1ccc(-c2nn(-c3ccccc3)c(OC)c2CCc2ccc(F)cc2)cc1 [JV-1-81] | 19.7 | 
Cc1nn(C(=N)N)c(O)c1CCc1ccc(F)cc1 [JV-1-87] |  | 0.0
COc1ccc(-c2nn(C(N)=S)c(O)c2CCc2ccc(F)cc2)cc1 [JV-1-94] |  | 0.0
N=C(N)n1nc(-c2ccc(C(F)(F)F)cc2)c(Cc2cccc(Cl)c2)c1O [JV-2-9-1] | 0 | 
N=C(N)n1nc(-c2ccc([N+](=O)[O-])cc2)c(Cc2cccc(Cl)c2)c1O [JV-2-10] | 3 | 
NC(=S)n1nc(-c2ccc(C(F)(F)F)cc2)c(Cc2cccc(Cl)c2)c1O [JV-2-12] | 41.7 | 
O=[N+]([O-])c1ccc(-c2n[nH]c(O)c2Cc2ccc(F)cc2)cc1 [JV-2-13] | 1.7 | 

Compound | inhibition at 3 µM [%] | INFECTIVITY @ 3 μM % Inhibition vs. DMSO control [%]
Oc1c(Cc2cccc(Cl)c2)c(-c2ccc(C(F)(F)F)cc2)nn1C1=NCCN1 [JV-2-14] | 54.7 | 
N=C(N)n1nc(-c2ccccc2)c(Cc2cccc(Cl)c2)c1N [JV-2-16] | 0 | 
N=C(N)n1nc(-c2ccc(F)cc2)c(Cc2cccc(Cl)c2)c1N [JV-2-19] | 0 | 
COc1ccccc1/N=N/c1c(-c2ccc([N+](=O)[O-])cc2)nn(C(N)=S)c1O [JZ-1-49] | 0 | 
COc1ccc(/N=N/c2c(-c3ccc([N+](=O)[O-])cc3)n[nH]c2O)cc1 [JZ-1-50] | 28.9 | 
COc1cccc(/N=N/c2c(-c3ccc([N+](=O)[O-])cc3)nn(C(N)=S)c2O)c1 [JZ-1-56] | 0 | 
Oc1[nH]nc(-c2ccccc2)c1/N=N/c1ccccc1 [JZ-1-58-2] | 1.7 | 
NC(=S)n1nc(-c2ccccc2)c(/N=N/c2ccccc2)c1O [JZ-1-58-3] | 7.3 | 
COc1ccc(-c2nn(C(N)=S)c(O)c2/N=N/c2cccc(Cl)c2)cc1 [JZ-1-62] | 9.3 | 
NC(=S)n1nc(-c2ccc(C(F)(F)F)cc2)c(/N=N/c2cccc(Cl)c2)c1O [JZ-1-64] | 26.5 | 
NC(=S)n1nc(-c2ccc([N+](=O)[O-])cc2)cc1O [JZ-1-94] | 0 | 
COc1ccc(-c2nn(-c3ccccc3)c(OC)c2/C=C/c2ccccc2)cc1 [JZ-1-145-1] | 0 | 
COc1ccc(-c2nn(-c3ccccc3)c(OC)c2/C=C/c2cccc(F)c2)cc1 [JZ-1-146-1] | 0 | 
COc1ccc(-c2nn(C(=N)N3CCOCC3)c(O)c2CCc2ccc(F)cc2)cc1 [JZ-1-154-2-2] | 0 | 
O=[N+]([O-])c1ccc(-c2nn(C3=NCCN3)c(O)c2Cc2ccc(F)cc2)cc1 [JZ-1-171] | 0 | 
N=C(N)n1nc(-c2ccc(F)cc2)c(Cc2ccc(F)cc2)c1O [JZ-1-175] | 0 | 
Oc1c(Cc2ccc(F)cc2)c(-c2ccc(F)cc2)nn1C1=NCCN1 [JZ-1-176] | 7.7 | 

From US9695127B2, “Compounds for treating HIV and methods for using the compounds” (University of Pittsburgh—Of the Commonwealth System of …, priority 2012, dated 2017)
